One assay concerns diabetic mice. The settings on record: cited from earlier work.
A further assay has as its system BiP, GRP94 and CHOP. Briefly: Western blot of ER stress markers in islets in culture. The assay is classed as cell-based, mouse. Particulars: islets exposed to increasing amounts of iron citrate alone (FIG. 12A). On the procedure: (§1) Western Blotting. The mouse islets were treated with CPX 20 μM for 24 h and lysed in RIPA buffer [50 mM Tris, pH 7.2; 150 mM NaCl; 1% sodium deoxycholate; 0.1% SDS; 1% Triton-X 100; 10 mM NaF; 1 mM Na3VO4; protease inhibitor cocktail (1:1000, Sigma, St. Louis, Mo.)] and were subjected to immunoblot analysis by standard methods. Proteins were resolved on a 10% SDS-PAGE and transferred to a nitrocellulose membrane (Bio-Rad, Hercules, Calif.). Membranes were probed overnight with GADD153 (F-168), sc-575 from Santa Cruz Biotechnology (1:50); p21 (F-5), sc-6246 from Santa Cruz Biotechnology (1:200); actin, clone C4 MAB1501 from Millipore (Billerica, Mass., USA) (1:2000); BiP antibody (cat. no. 3183) from Cell Signaling (Danvers, Mass., USA) (1:1000); GRP94 antibody (H-212), sc-11402 from Santa Cruz Biotechnology (1:500); insulin rabbit polyclonal H-86, sc-9168 from Santa Cruz Biotechnology (1:500) antibodies followed by incubation with horseradish peroxidase-conjugated (HRP) anti-mouse (1:10000), goat anti-rabbit IgG (1:10000, Santa Cruz biotechnology Inc., Santa Cruz, Calif., USA) for 1 hr. After incubation with enhanced chemiluminescence reagents (Santa Cruz biotechnology Inc.), membranes were analyzed using an Image J software for Windows.
(§2) In order to understand better how CPX operates in β cells, it was tested to determine if it affected the efficiency by which insulin is produced following glucose stimulation. […] In view of the antidiabetic activity of CPX in vivo, the inhibition of insulin release appears contradictory. […]
(§3) While modulation of insulin release by CPX constitutes a challenging mechanism by which CPX may affect ER stress, how CPX regulates insulin expression remains obscure. […] To test this hypothesis, islets were exposed to iron citrate, alone or combined with CPX, and the levels were recorded of chaperones BiP, GRP94 and CHOP, as well as of insulin.
(In general: In western blotting, separated proteins are transferred to a membrane and probed.)

Another assay relates to insulin. The assay can be described thus: Western blot of insulin levels in islets in culture. The class given is cell-based, mouse. The settings on record: islets exposed to increasing amounts of iron citrate alone (FIG. 12A). On the procedure: as §1, §2, §3

The source of these data is US10576151B2, “Ciclopirox for use in modulation of glucose homeostasis” (UNIVERSITY OF SOUTH CAROLINA, priority 2015, dated 2020).

For the compound `COc1ccc(C2=N[C@@H](c3ccc(Cl)cc3)[C@@H](c3ccc(Cl)cc3)N2C(=O)N2CCNC(=O)C2)c(OC(C)C)c1` [nutlin-3a], the effect on diabetes entry with diabetic mice (mice, stimulation of p53/p21 activity) is reported as “beneficial for diabetes in mice”. Also, in the assay with diabetic mice (p21-deficient diabetic mice), the “response of diabetes to treatment” value is reported as “unresponsive to nutlin-3a”.

In the case of iron citrate, the “ER stress-markers BiP, GRP94 and CHOP” value with BiP, GRP94 and CHOP is “induced ER stress-markers BiP, GRP94 and CHOP”. Also, the insulin production result in the assay on insulin is recorded as “triggered insulin production”.
